We go through three molecules from patent US11007162B2, “Methods of reducing small, dense LDL particles” (CymaBay Therapeutics, Inc., priority 2008, dated 2021).

One test relates to overweight subjects. In words: Second clinical study: LDL particle size pattern and blood chemistry in overweight subjects. Type of test: in vivo, human. The protocol:
A second clinical study to determine the effect of the Compound of Formula II on LDL particle size in overweight subjects was performed. Subjects in this study met the following criteria: Non-Diabetic; untreated or diet-treated, with fasting lipids at initial screening and visit 2 (after 4 week run-in): […] Subjects were males with waist circumference greater than 38″ or females with waist circumference greater than 33″. Data was generated in this second study from 181 subjects. […] Of the 28 subjects that remained in the study in the placebo group, there was a net loss of subjects having LDL pattern A.

Test [1] concerns human subjects. As to the kind of experiment: Absorption of phytosterols (markers of cholesterol absorption) in human subjects, day 21. Type of test: in vivo. To be noted: oral daily dose, day 21, FIG. 11. The procedure:
In another experiment, human subjects received an oral dose of Compound II at day 1 and daily thereafter and the effect of the drug was assessed on day 21. Phytosterols are poorly absorbed from diet, but are absorbed proportionally with dietary cholesterol and thus serve as good markers of cholesterol absorption.

Another test concerns C57BL/6 mice. As to the kind of experiment: Intestinal cholesterol absorption by fecal dual isotope ratio method. The format is in vivo. The protocol:
This study was designed to examine the effect of Compound II on intestinal cholesterol absorption in mice using the fecal dual isotope ratio method. Eight-week-old male C57BL/6 mice were fed standard mouse chow (control) with no added cholesterol (Harlan Teklad diet T.8604) ad libitum. Mice were randomized into five groups: 1) control, water gavaged daily; 2) compound II gavaged daily (in water) at a dose of 3 mg/kg; 3) compound II gavaged daily (in water) at a dose of 10 mg/kg; 4) ezetimibe gavaged daily (in corn oil) at a dose of 5 mg/kg; 5) compound II fed daily as diet admix at a dose of approximately 15 mg/kg. Mice were housed individually and monitored daily for food consumption and body weight. Following eight days of feeding/drug administration, (and 1 hour following gavage of drug), nonfasted, unanesthetized animals were bled and plasma was isolated and flash-frozen at −80° C. for shipment and measurement of concentrations of Compound II and its metabolites. The following day (day 9), mice were gavaged with drug or control. One hour later, each mouse was gavaged with MCT oil containing [^14C]cholesterol and [^3H]sitostanol. Mice were housed individually in metabolic cages and ad libitum feeding and daily gavage of each drug was continued. Feces were collected daily from each animal for a period of 4 days. For each individual mouse, the 4-day feces were pooled, dried, saponified, extracted and counted.
Intestinal cholesterol absorption in age- and gender-matched C57BL/6 mice was determined by the fecal dual isotope ratio method. […] See, FIG. 10. […] Statistical analysis between groups was assessed by unpaired Student's t-test. Statistical significance was defined as a two-tailed probability of less than 0.05.

Test [2] concerns human subjects. In words: Effect on cholesterol synthesis in human subjects after 21 days. Type of test: in vivo. The protocol:
A series of experiments were performed to determine the effect of Compound II on cholesterol synthesis. Compound II was administered to human subjects and the effect on cholesterol ester, acyl-coenzyme A:cholesterol acyltransferase (ACAT) and Lecithin-cholesterol acyltransferase (LACAT) was determined after 21 days. […] The effect of treatment appeared similar between ACAT- and LCAT-derived cholesterol esters, indicating a reduction in cholesterol substrate.

The next test deals with healthy male subjects. In words: Phase I multiple ascending dose study, 21 days; LDL particle size by GGE and AIM. The format is in vivo, human. Conditions: for predominant LDL particle size / proportion of small LDL particles: 50, 100 and 200 mg. The procedure:
Thirty-six healthy male subjects were treated with the compound of Formula II at 50, 100, and 200 mg for 21 days. To determine the lipoprotein particle sizes in the subjects before and after administration of the compound, gradient-gel electrophoresis (GGE) and Airborne Ion Mobility (AIM) methods were used.
GGE was performed essentially as described in Krauss and Burke, J Lipid Res. 23:97-104 (1982) and La Belle, et al., J. Lipid Res. 38 690-700 (1997) as follows:
LDL particle diameters were determined by nondenaturing 2-14% polyacrylamide gradient gel electrophoresis in 0.09 M Tris/0.08 M borate buffer (pH 8.3), 3 mM EDTA at 8-10° C. Samples (whole plasma) were electrophoresed at 40 V for 15 min, then 80 V for 15 min, and then at 125 V for 24 h to allow all particles to run to their size exclusion limits. Gels were stained for protein with Sudan Black and scanned at 555 nm with a Transidyne RFT densitometer. Particle sizes were calculated from a calibration curve using a high molecular weight reference protyin mixture (Pharmacia Biotech., Piscataway, N.J.), 380 Å latex beads (Duke Scientific Corp., Palo Alto, Calif.) and lipoprotein calibrators that are frozen at −80° C. and included on each gel run. Plasma samples, stored at −80° C. and used as controls for gradient gel analysis procedures, were run in duplicate on each gel. Particle size of LDL peaks in the controls were measured within ±2 Å (coefficient of variation, +1%).
AIM was performed essentially as described in Caulfield, et al., Clin. Chem. 54:1307-1316 (2008), generally as follows:
Serum samples or controls were briefly mixed by vortex mixing, then 5 μl of sample or control was mixed with 20 μl of an albumin removal reagent [7.5 g/L Reactive green 19 dextran (RGD), Sigma-Aldrich; 2.5 g/L dextran sulfate, Sigma-Aldrich; and 0.5 g/L EDTA, Spectrum Chemicals] and incubated on ice for 15 minutes. After incubation, the sample mixture was overlaid on 200 μl deuterium oxide (Medical Isotopes) in a 42.2 ultracentrifuge tube (Beckman Coulter). The samples were ultracentrifuged at 10° C. for 135 min at 223 000 g (42 000 rpm), and then the top 85 μl (i.e., the lipid fraction) of the sample was removed. The samples were diluted 1:800 for HDL analysis using 25 mmol/L ammonium acetate, 0.5 mmol/L ammonium hydroxide, pH 7.4. For LDL analysis, samples were diluted 1:200 with the same diluent containing 5 μg/mL dextran sulfate to help prevent LDL particles from sticking to the capillary surfaces. Final dilutions were made in deep-well 96-well plates and placed in a Leap HTLC Pal autosampler (Eksigent) with the cooled stack maintained at 6° C.
The autosampler was connected to the electrospray generator (Model 3480; TSI) via methyl-deactivated silica capillary (50 μm i.d.; SGE). Flow was introduced by nano-LC pumps (Eksigent) running a mobile phase of 25 mmol/L ammonium acetate, 0.5 mmol/L ammonium hydroxide, pH 7.4. By means of a capillary metal union (Upchurch Scientific), an autosampler injected 10 μl sample at 6 μl/min into a transfer capillary (methyl-deactivated, SGE, 50 μm, 33 cm long). High voltage (2.1 kV) was applied to the metal capillary union located 33 cm upstream of the electrospray unit. The electrospray Taylor cone was monitored visually and amperometrically to ensure stability. After the sample had filled the capillary and reached the electrospray chamber, the flow was decreased to 200 nL/min and the data recording process was started. The gas (containing approximately 5% CO2) flowing into the electrospray chamber was regulated at 1.6 L/min. The electrosprayed particles passed through a particle-charge neutralizing chamber and then entered the differential mobility analyzer (DMA). Se, e.g., U.S. Pat. No. 7,259,018. Scan time was 2 min and covered a particle range of 17.2 to 542.0 Å. […]

Setting [3] is: Atorvastatin 20 mg, Week 0 (before treatment).
[4] abbreviates: MBX-8025 50 mg, Week 0 (before treatment).
[5] abbreviates: MBX-8025 100 mg, Week 0 (before treatment).
Setting [6] is: 21 days, listed as compound of Formula II.
Where [7] appears, read: phase I multiple ascending doses samples, FIG. 1.

On to `CC(C)c1c(C(=O)Nc2ccccc2)c(-c2ccccc2)c(-c2ccc(F)cc2)n1CC[C@@H](O)C[C@@H](O)CC(=O)O` [Atorvastatin, reference compound], for which, in the test with overweight subjects (setting [3]), the “number of subjects having LDL Pattern A” value is listed as 9, the “number of subjects having LDL Pattern B” value is 15 and the “number of subjects having LDL Pattern I” value is 5. Further, in the test on overweight subjects (Atorvastatin 20 mg, Week 4), the “number of subjects having LDL Pattern A” value was 12, the “number of subjects having LDL Pattern B” value amounted to 10 and the “number of subjects having LDL Pattern I” value came to 6. Moreover, in the test on overweight subjects (Atorvastatin 20 mg, Week 8), the “number of subjects having LDL Pattern A” value is recorded as 13, the “number of subjects having LDL Pattern B” value came out at 13 and the “number of subjects having LDL Pattern I” value is reported as 3. In addition, the HDL levels entry in the test on overweight subjects (FIG. 6) is recorded as “no effect”.

For `CCOC(COc1ccc(C(F)(F)F)cc1)CSc1ccc(OCC(=O)O)c(C)c1` (centres unmarked) [Compound II], in the test on human subjects [1], the Stigmasterol entry was “not significantly affected”, the campesterol result is listed as “significantly decreased” and the β-sitosterol entry is listed as “significantly decreased”. Also, in the test on overweight subjects (50 mg and 100 mg), the “LDL pattern results compared with control group treated with Atorvastatin” value is on record as “superior”. In the test with overweight subjects (100 mg), the “number of subjects having pattern A (in words)” value was “increase” and the “number of subjects having pattern B (in words)” value is given as “large decrease”. Moreover, in the test on overweight subjects (FIG. 6), the “Apo B-100” value is on record as “reduced”, the HDL levels entry was “increased”, the LDL entry is “reduced” and the total cholesterol entry is on record as “reduced”. In addition, the triglycerides entry in the test on overweight subjects (FIG. 6) is reported as “reduced”. Besides, in the test with overweight subjects (FIG. 7), the “percentage of individuals having LDL pattern A over time” value is on record as “went up dramatically”. In addition, the “percentage of individuals having LDL pattern B over time” value in the test on overweight subjects (FIG. 8) is reported as “went down dramatically”. In addition, in the test on overweight subjects (setting [4]), the “number of subjects having LDL Pattern A” value is on record as 8, the “number of subjects having LDL Pattern B” value worked out at 13 and the “number of subjects having LDL Pattern I” value was determined as 7. Moreover, in the test on overweight subjects (MBX-8025 50 mg, Week 4), the “number of subjects having LDL Pattern A” value is listed as 24, the “number of subjects having LDL Pattern B” value is 3 and the “number of subjects having LDL Pattern I” value was 0. Moreover, in the test on overweight subjects (MBX-8025 50 mg, Week 8), the “number of subjects having LDL Pattern A” value is recorded as 25, the “number of subjects having LDL Pattern B” value came to 2 and the “number of subjects having LDL Pattern I” value was 2. For the same molecule, in the test with overweight subjects (setting [5]), the “number of subjects having LDL Pattern A” value stood at 6, the “number of subjects having LDL Pattern B” value came to 20 and the “number of subjects having LDL Pattern I” value came to 7. Moreover, in the test on overweight subjects (MBX-8025 100 mg, Week 4), the “number of subjects having LDL Pattern A” value is 25, the “number of subjects having LDL Pattern B” value is on record as 1 and the “number of subjects having LDL Pattern I” value came out at 4. Moreover, in the test on overweight subjects (MBX-8025 100 mg, Week 8), the “number of subjects having LDL Pattern A” value came out at 25, the “number of subjects having LDL Pattern B” value is given as 2 and the “number of subjects having LDL Pattern I” value came out at 2. For the same molecule, the “reduction in cholesterol absorption versus control (printed as negative change)” value with C57BL/6 mice (admix to diet, approximate dose 15 mg/kg/d, p<0.0006) is −45%. In addition, the “change in cholesterol absorption versus control” value with C57BL/6 mice (gavage, 3 mg/kg/d, no significant change) is recorded as −8%. Moreover, in the test with C57BL/6 mice (gavage, 10 mg/kg/d, significant), the “reduction in cholesterol absorption versus control” value is 29.4%. In the test with human subjects [2] (FIG. 9), the “Lanosterol (cholesterol synthesis intermediate) in blood” value is given as “decreased in a dose-dependent fashion”, the “desmosterol (cholesterol synthesis intermediate) in blood” value is “decreased in a dose-dependent fashion” and the “lathosterol (cholesterol synthesis intermediate) in blood” value is on record as “decreased in a dose-dependent fashion”. Besides, the “cholesterol concentrations (ACAT- and LCAT-derived cholesterol esters)” value in the test with human subjects [2] (after 21 days) is listed as “decreased cholesterol concentrations in a dose-dependent fashion”. Also, the “shift of LDL subclass pattern” value in the test with healthy male subjects (50, 100 and 200 mg dosage, day 21 vs day 1, GGE) was “from LDL Pattern B or I to LDL Pattern A”. Further, in the test on healthy male subjects (21 days, listed as compound II), the “predominant LDL particle size” value is “increased” and the “proportion of small LDL particles” value is “lowered”. In the test with healthy male subjects (setting [6]), the “predominant LDL particle size” value was “effectively increased” and the “proportion of small LDL particles” value is given as “decreasing the amount of smaller LDL particles”. Also, in the test on healthy male subjects (21 days, listed as drawing 12), the “predominant LDL particle size” value is “effective in improving”. Also, in the test on healthy male subjects (21 days), the VLDL particle size entry is listed as “did not affect”. In the test with healthy male subjects (21 days, by dose), the LDL particle distributions entry was “did affect LDL particle distributions in dose dependent fashion”. Also, in the test with healthy male subjects (setting [7]), the “Apolipoprotein B” value was “significantly lowered” and the LDL-cholesterol result is listed as “significantly lowered”.

As to `O=C1[C@H](CC[C@H](O)c2ccc(F)cc2)[C@@H](c2ccc(O)cc2)N1c1ccc(F)cc1` [ezetimibe, reference compound], the “reduction in cholesterol absorption” value in the test on C57BL/6 mice (gavage in corn oil, 5 mg/kg/d, positive control, p<0.0000005) came out at 56.4%.
